Assay results taken from patent US20170152241A9, “BICYCLIC DERIVATIVE CONTAINING PYRIMIDINE RING, AND PREPARATION METHOD THEREFOR” (YUHAN CORPORATION, priority 2013, published 2017).
Where a name gives a salt, the structure may show the parent alone.

Target: T1, human 5-HT4(a) (Homo sapiens, UniProt Q13639)
T1 construct: host or cells: GeneBlAzer HTR4-CRE-bla CHO-K1 cells
Experiment: Evaluation of agonistic activity in CHO-K1 cells expressing human 5-HT4(a) (GeneBlAzer HTR4-CRE-bla, beta-lactamase reporter)
Format: cell-based
Settings: 5 hours incubation, 8 concentrations
Protocol: Evaluation of Agonistic Activity in CHO-K1 Cells Expressing Human 5-HT4(a)
As CHO-K1 cells stably expressing human 5-HT4(a), we used the GeneBlAzer HTR4-CRE-bla CHO-K1 cells (Invitrogen corp.). The cells were cultured in DMEM medium supplemented with 10% bovine fetal serum (FBS), 25 mM HEPES (pH 7.4), 600 μg/ml Hygromycin B, 0.1 mM non-essential amino acids, 100 unit/ml penicillin and 100 μg/ml streptomycin under the condition of 37° C. and 5% CO2. Subcultures were performed three times per a week, each being at less than 80% confluence. At the previous day before treating test compounds, the cells were collected by using 0.5% trypsin/EDTA, and then diluted with a DMEM supplemented with 1% FBS, 25 mM HEPES and 0.1 mM non-essential amino acids into 3.125×10^5 cells/ml. 32 μl of the diluted cells were added into 384-well plate (10,000 cells/well) and then incubated overnight. The compounds to be used as a test material and a control drug were prepared as 500× of the various final treating concentrations of the drug with 100% DMSO, and then treated to the medium after diluting them to 100-folds to be 1% of the final DMSO concentration equally. After culturing overnight, 8 μl of the medium having 1% of DMSO was added into the cell-free control well and the non-stimulating control well, respectively. 8 μl of the control drug or the test material (which had been prepared by diluting 100-folds with the medium as mentioned in the above) having 1% of DMSO, were added to the respective remaining wells. After culturing in an incubator for 5 hours, the wells of the 384-plate were treated with the substrate solution (8 μl/well) prepared according to the vendor's instruction (i.e. Invitrogen's instruction), and then incubated in the dark room for additional 2 hours. Agonistic activities on 5-HT4 receptor were evaluated, on the basis of fluorescent values of the cleavage-products, which is generated cAMP-concentration dependently per equal time by beta-lactamase. After exciting to 410 nm of wavelength by using Genios Pro Fluorescence Detector, we measured the fluorescence values at two emission wavelengths (first wavelength: 465 nm, second wavelength: 535 nm). Data were analyzed on the basis of the ratio of fluorescence intensities of each well at the respective wavelengths. For all plates, the concentrations-response curve (1 pM-100 nM) of the control drug (Tegaserod) was included. Each EC50 values of the test compounds were calculated by non-linear regression analysis using GraphPad Prism program, based on the concentration-reactivity values according to 8-different concentrations of the test compounds.

T1 sequence (Q13639 1-387 isoform Q13639-2): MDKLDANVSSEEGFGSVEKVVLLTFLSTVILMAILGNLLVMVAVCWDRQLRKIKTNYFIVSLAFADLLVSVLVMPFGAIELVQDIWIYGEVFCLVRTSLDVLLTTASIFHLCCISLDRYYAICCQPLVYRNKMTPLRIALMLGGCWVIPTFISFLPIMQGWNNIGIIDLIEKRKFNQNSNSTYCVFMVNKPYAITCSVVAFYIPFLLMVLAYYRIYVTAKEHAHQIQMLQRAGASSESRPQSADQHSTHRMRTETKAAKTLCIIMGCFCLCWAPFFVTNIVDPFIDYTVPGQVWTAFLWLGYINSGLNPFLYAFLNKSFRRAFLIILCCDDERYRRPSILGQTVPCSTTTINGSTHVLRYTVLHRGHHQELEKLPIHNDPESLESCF

SMILES	EC50 [nM]
CCN[C@H]1CCN(c2nc(Nc3cc(N)cc(C#N)c3)nc3ccccc23)C1 [Example 141, (S)-3-amino-5-([4-{3-(ethylamino)pyrrolidin-1-yl}quinazolin-2-yl]amino)benzonitrile]	0.01
CCCCCN[C@H]1CCN(c2nc(Nc3cc(N)cc(C#N)c3)nc3ccccc23)C1 [Example 41, (S)-3-amino-5-[4-{3-(pentylamino)-pyrrolidin-1-yl}quinazolin-2-ylamino]benzonitrile]	0.0024
CN[C@@H]1CCCN(c2nc(Nc3cc(N)cc(C(F)(F)F)c3)nc3c2CCCC3)C1 [Example 213, (R)—N^1-[4-{3-(methylamino)piperidin-1-yl}-5,6,7,8-tetrahydroquinazolin-2-yl]-5-(trifluoromethyl)benzene-1,3-diamine dihydrochloride]	0.016
CC(=O)N[C@H]1CCN(c2nc(Nc3cc(N)cc(C#N)c3)nc3cc(Cl)ccc23)C1 [Example 81, (S)—N-[1-{2-(3-amino-5-cyanophenylamino)-7-chloroquinazolin-4-yl}pyrrolidin-3-yl]acetamide hydrochloride]	0.06
N#Cc1cc(N)cc(Nc2nc3c(c(N4CCC[C@@H](N)C4)n2)CCC3)c1 [Example 199, (R)-3-amino-5-[{4-(3-aminopiperidin-1-yl)-6,7-dihydro-5H-cyclopenta[d]pyrimidin-2-yl}amino]benzonitrile dihydrochloride]	0.02
CC(=O)N[C@@H]1CCCN(c2nc(Nc3ccc(N)c([N+](=O)[O-])c3)nc3c2CCC3)C1 [Example 198, (R)—N-(1-[2-{(4-amino-3-nitrophenyl)amino}-6,7-dihydro-5H-cyclopenta[d]pyrimidin-4-yl]piperidin-3-yl}acetamide hydrochloride]	0.01
COc1cc2nc(Nc3cc(N)cc(C(F)(F)F)c3)nc(N3CC[C@H](NC(C)=O)C3)c2cc1OC [Example 7, (S)—N-{1-(2-[{3-amino-5-(trifluoromethyl)-phenyl}amino]-6,7-dimethoxyquinazolin-4-yl)pyrrolidin-3-yl}acetamide]	0.03
CN[C@@H]1CCCN(c2nc(Nc3cc(N)cc(C#N)c3)nc3c2CCC3)C1 [Example 204, (R)-3-amino-5-([4-{3-(methylamino)piperidin-1-yl}-6,7-dihydro-5H-cyclopenta[d]pyrimidin-2-yl]amino)benzonitrile dihydrochloride]	0.01
COc1cccc2c(N3CCC[C@@H](NC(C)=O)C3)nc(Nc3cc(N)cc(C(F)(F)F)c3)nc12 [Example 64, (R)—N-[1-{2-(3-amino-5-trifluoromethylphenylamino)-8-methoxyquinazolin-4-yl}piperidin-3-yl]acetamide]	0.03
CNC(=O)[C@@H]1CCCN(c2nc(Nc3cc(N)cc(C(F)(F)F)c3)nc3c2CCCC3)C1 [Example 123, (R)-1-[2-{3-amino-5-(trifluoromethyl)phenylamino}-5,6,7,8-tetrahydroquinazolin-4-yl]-N-methylpiperidine-3-carboxamide]	0.01
CC(=O)N[C@H]1CCN(c2nc(Nc3cc(N)cc(C#N)c3)nc3c2CCCC3)C1 [Example 88, (S)—N-[1-{2-(3-amino-5-cyanophenylamino)-5,6,7,8-tetrahydroquinazolin-4-yl}pyrrolidin-3-yl]acetamide]	0.01
CC(=O)N[C@H]1CCN(c2nc(Nc3cc(N)cc(C#N)c3)nc3c2CCC3)C1 [Example 168, (S)—N-(1-[2-{(3-amino-5-cyanophenyl)amino}-6,7-dihydro-5H-cyclopenta[d]pyrimidin-4-yl]pyrrolidin-3-yl)acetamide hydrochloride]	0.01
CNC(=O)[C@@H]1CCCN(c2nc(Nc3ccc(N)c([N+](=O)[O-])c3)nc3c2CCC3)C1 [Example 224, (R)-1-[2-{(4-amino-3-nitrophenyl)amino}-6,7-dihydro-5H-cyclopenta[d]pyrimidin-4-yl]-N-methylpiperidine-3-carboxamide hydrochloride]	0.0087
CN[C@H]1CCN(c2nc(Nc3cc(N)cc(C#N)c3)nc3cccc(C)c23)C1 [Example 68, (S)-3-amino-5-[5-methyl-4-{3-(methylamino)pyrrolidin-1-yl}quinazolin-2-ylamino]benzonitrile]	0.08
CCN[C@H]1CCN(c2nc(Nc3cc(N)cc(C#N)c3)nc3c2CCCC3)C1 [Example 105, (S)-3-amino-5-[4-{3-(ethylamino)pyrrolidin-1-yl}-5,6,7,8-tetrahydroquinazolin-2-ylamino]benzonitrile dihydrochloride]	0.01
COc1ccc2c(N3CC[C@H](NC(C)=O)C3)nc(Nc3cc(N)cc(C#N)c3)nc2c1 [Example 147, (S)—N-(1-[2-{(3-amino-5-cyanophenyl)amino}-7-methoxyquinazolin-4-yl]pyrrolidin-3-yl)acetamide]	0.01
CC(=O)N[C@H]1CCN(c2nc(Nc3ccc(Cl)c(N)c3)nc3ccccc23)C1 [Example 133, (S)—N-(1-[2-{(3-amino-4-chlorophenyl)amino}quinazolin-4-yl]pyrrolidin-3-yl)acetamide]	0.03
COc1ccc2nc(Nc3cc(N)cc(C(F)(F)F)c3)nc(N3CC[C@H](NC(C)=O)C3)c2c1 [Example 14, (S)—N-{1-(2-[{3-amino-5-(trifluoromethyl)-phenyl}amino]-6-methoxyquinazolin-4-yl)pyrrolidin-3-yl}-acetamide]	0.02

Continued by falling EC50, values first:

EC50 [nM]	SMILES
0.39	CC(=O)N[C@H]1CCN(c2nc(Nc3cc(N)cc(C#N)c3)nc3cc(C(F)(F)F)ccc23)C1 [Example 28, (S)—N-(1-[2-{(3-amino-5-cyanophenyl)amino}-7-(trifluoromethyl)quinazolin-4-yl]pyrrolidin-3-yl)-acetamide]
0.09	Nc1cc(Nc2nc(N3CCC[C@@H](N)C3)c3ncccc3n2)cc(C(F)(F)F)c1 [Example 167, (R)—N^1-{4-(3-aminopiperidin-1-yl)pyrido[3,2-d]pyrimidin-2-yl}-5-trifluoromethyl)benzene-1,3-diamine dihydrochloride]
0.05	CC(C)N[C@H]1CCN(c2nc(Nc3cc(N)cc(C#N)c3)nc3ccccc23)C1 [Example 46, (S)-3-amino-5-[4-{3-(isopropylamino)pyrrolidin-1-yl}quinazolin-2-ylamino]benzonitrile]
0.04	CC(=O)N[C@H]1CCN(c2nc(Nc3cc(N)cc(C#N)c3)nc3cc(F)ccc23)C1 [Example 85, (S)—N-[1-{2-(3-amino-5-cyanophenylamino)-7-fluoroquinazolin-4-yl}pyrrolidin-3-yl]acetamide hydrochloride]
0.04	CC(=O)N[C@@H]1CCCN(c2nc(Nc3ccc(N)c(C(F)(F)F)c3)nc3c(C)cccc23)C1 [Example 80, (R)—N-(1-[2-{4-amino-3-(trifluoromethyl)phenylamino}-8-methylquinazolin-4-yl]piperidin-3-yl)acetamide hydrochloride]
0.03	N#Cc1cc(N)cc(Nc2nc(N3CC[C@H](NC(=O)Cc4cccs4)C3)c3ccccc3n2)c1 [Example 37, (S)—N-[1-{2-(3-amino-5-cyanophenylamino)quinazolin-4-yl}pyrrolidin-3-yl]-2-(thiophen-2-yl)acetamide]
0.03	N#Cc1cc(N)cc(Nc2nc(N3CC[C@H](N)C3)c3ccccc3n2)c1 [Example 31, (S)-3-amino-5-{4-(3-aminopyrrolidin-1-yl)-quinazolin-2-ylamino}benzonitrile dihydrochloride]
0.02	N#Cc1cc(N)cc(Nc2nc3c(c(N4CC[C@H](N)C4)n2)CCC3)c1 [Example 174, (S)-3-amino-5-[{4-(3-aminopyrrolidin-1-yl)-6,7-dihydro-5H-cyclopenta[d]pyrimidin-2-yl}amino]benzonitrile dihydrochloride]
0.01	CCCN[C@H]1CCN(c2nc(Nc3cc(N)cc(C#N)c3)nc3cccnc23)C1 [Example 159, (S)-3-amino-5-([4-{3-(propylamino)pyrrolidin-1-yl}pyrido[3,2-d]pyrimidin-2-yl]amino)benzonitrile dihydrochloride]
0.01	CCCN[C@H]1CCN(c2nc(Nc3cc(N)cc(C#N)c3)nc3c2CCC3)C1 [Example 184, (S)-3-amino-5-([4-{3-(propylamino)pyrrolidin-1-yl}-6,7-dihydro-5H-cyclopenta[d]pyrimidin-2-yl]amino)benzonitrile dihydrochloride]
0.01	COc1ccc2nc(Nc3cc(N)cc(C#N)c3)nc(N3CCC[C@@H](NC(C)=O)C3)c2c1 [Example 21, (R)—N-(1-[2-{(3-amino-5-cyanophenyl)-amino}-6-methoxyquinazolin-4-yl]piperidin-3-yl)acetamide]
